Measured values: US6376584B1, “Hydroxy-substituted N-alkoxy hindered amines and compositions stabilized therewith” (Ciba Specialty Chemicals Corporation, priority 1999, dated 2002)
Like-named read-outs stand apart in the source and are kept apart here.

Assay: pKa values by non-aqueous titration (half neutralization potential)
Format: physicochemical
Settings: for HPN: 1:1 acetonitrile:chloroform, 0.1N perchloric acid/dioxane titrant
Description: In order to determine the pKa values of water insoluble materials, organic references with known pKa values in water are titrated non-aqueously. A plot of the half neutralization potential (HNP) versus the known aqueous pKa value of the reference material is established. The HNP of the test material is determined and extrapolated to find the corresponding pKa value of the test material. Such organic reference materials include 2,2,6,6-tetrarnethylpiperidine; 4-hydroxy-2,2,6,6-tetramethylpiperidine; 1-hydroxyethyl-4-hydroxy-2,2,6,6-tetramethylpiperidine; triacetoneamine and N-methylaniline.
The reference materials, which are structurally at least peripherally related to the instant test materials and are soluble in both water and 1:1 acetonitrile:chloroform, are used to make a calibration plot in the non-aqueous titration (1:1 acetonitrile:chloroform solvent and 0.1N perchloric acid/dioxane titrant) system. Approximately 0.5 milliequivalents of test material is weighed into a titration beaker. Thirty mL of acetonitrile is added to dissolve the sample. Prior to titration, 30 mL of chloroform is added. Titration is carried out and the HNP is determined. The electrolyte for the reference electrode is 2-(aminomethylpyridine. The electrode is allowed to stand in the solvent system for two hours after filling with the electrolyte to achieve equilibration. All samples are run in duplicate. The pKa values are seen in the table below.

[1] = extrapolated from HNP versus known aqueous pKa of reference materials
[2] = extrapolated from HNP versus known aqueous pKa of reference materials, read-out: Calculated pKa
[3] = pKa of the test hindered amine contained in the formulation, read-out: HALS pKa

| HPN | Calculated pKa [1] | pKa [2] | pKa [3] | SMILES |
| --- | --- | --- | --- | --- |
| 513 mv | 3.8 | – | – | CC(C)(O)CON1C(C)(C)CC(OC(=O)CCCCCCCCC(=O)OC2CC(C)(C)N(OCC(C)(C)O)C(C)(C)C2)CC1(C)C [Example 2] |
| 523 mv | – | 3.9 | 4 | CCCCCCCCCCCCCCCCCC(=O)OC1CC(C)(C)N(OCC(C)(C)O)C(C)(C)C1 [Example 73, 1-(2-Hydroxy-2-methylpropoxy)-4-octadecanoyloxy-2,2,6,6-tetramethylpiperidine] |
| – | – | 4.6 | 4.6 | CCCCCCCCON1C(C)(C)CC(OC(=O)CCCCCCCCC(=O)OC2CC(C)(C)N(OCCCCCCCC)C(C)(C)C2)CC1(C)C [TINUVIN® 123, bis(1-octyloxy-2,2,6,6-tetramethylpiperidin-4-yl) sebacate] |
| 436 mv | 4.9 | – | – | CCCCCCCCCCCCCCCCCC(=O)OC1CC(C)(C)N(OC2CCCCC2)C(C)(C)C1 [II, 1-cyclohexyloxy-4-ocatadecanoyloxy-2,2,6,6-tetramethylpiperidine] |
| – | – | – | 9.1 | CC1(C)CC(OC(=O)CCCCCCCCC(=O)OC2CC(C)(C)NC(C)(C)C2)CC(C)(C)N1 [TINUVIN® 770, bis(2,2,6,6-tetramethylpiperidin-4-yl) sebacate] |
